According to patent US12344597B2, “Alkoxy-substituted pyridinyl derivatives as LPA1 receptor antagonists and their use in the treatment of fibrosis” (IDORSIA PHARMACEUTICALS LTD, priority 2018, dated 2025):

Target: human LPA1 receptor (Homo sapiens (Human), UniProt Q92633)
Assay: Beta-arrestin recruitment assay to determine IC50 values for human LPAR1
Assay type: cell-based
Details: antagonist mode, Tango EDG2-bla U2OS cells, LPA 18:1 500 nM final
Description: Beta-Arrestin Recruitment Assay to Determine IC50 Values for Human LPAR1
The Tango™ EDG2-bla U2OS cells are obtained from Invitrogen. These cells contain the human LPA1 receptor cDNA linked to a TEV protease site and a Gal4-VP16 transcription factor integrated into the Tango™ GPCR-bla U2OS parental cell line. This parental cell line stably expresses a beta-arrestin/TEV protease fusion protein and the beta-lactamase (bla) reporter gene under the control of a UAS response element. Upon LPA (agonist) binding, LPA1 receptor gets activated, leading to arrestin-protease recruitment and proteolytic release of the transcription factor: The transcription factor then regulates transcription of a beta-lactamase reporter construct, which is measured upon addition of the live-cell substrate.
10′000 Tango™ EDG2-bla U2OS cells are seeded in a 384-well black with clear bottom plate in 30 μl Freestyle 293 Expression Medium (Invitrogen) and incubated for 20 h at 37° C., 5% CO2. […] IC50 is the concentration of antagonist inhibiting 50% of the maximal response.

Sequence of human LPA1 receptor (Q92633 whole entry): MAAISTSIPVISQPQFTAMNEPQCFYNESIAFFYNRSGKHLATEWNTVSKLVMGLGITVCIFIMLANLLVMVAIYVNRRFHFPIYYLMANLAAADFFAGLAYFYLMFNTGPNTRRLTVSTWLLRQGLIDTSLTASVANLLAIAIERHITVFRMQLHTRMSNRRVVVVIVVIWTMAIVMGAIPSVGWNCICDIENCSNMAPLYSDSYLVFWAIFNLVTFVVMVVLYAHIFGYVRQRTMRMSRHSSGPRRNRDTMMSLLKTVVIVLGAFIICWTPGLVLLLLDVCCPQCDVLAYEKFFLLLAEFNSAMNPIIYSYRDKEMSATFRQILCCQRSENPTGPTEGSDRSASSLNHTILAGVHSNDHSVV

Compound | IC50 [nM]
CC(C)c1ccccc1C1(C(=O)Nc2ncc(Br)cc2OC(F)F)CN(S(N)(=O)=O)C1 [Ex 81-4, N-(5-bromo-3-(difluoromethoxy)pyridin-2-yl)-3-(2-isopropylphenyl)-1-sulfamoylazetidine-3-carboxamide] | 2
Cc1ccc(NC(=O)C2(c3ccccc3C(C)C)CNC2)c(OC(C)C)n1 [Ex 2, N-(2-isopropoxy-6-methylpyridin-3-yl)-3-(2-isopropylphenyl)azetidine-3-carboxamide] | 320
Cc1ccc(NC(=O)C2(c3ccccc3C(C)C)CN(C(=O)O[C@H](C)C(=O)O)C2)c(OC(F)F)n1 [Ex 14-5, (R)-2-((3-((2-(difluoromethoxy)-6-methylpyridin-3-yl)carbamoyl)-3-(2-isopropylphenyl)azetidine-1-carbonyl)oxy)propanoic acid] | 9
Cc1ccc(NC(=O)C2(c3ccccc3C(C)C)CCN(S(=O)(=O)CC(=O)O)CC2)c(OC(F)F)n1 [Ex 13-3, 2-((4-((2-(difluoromethoxy)-6-methylpyridin-3-yl)carbamoyl)-4-(2-isopropylphenyl)piperidin-1-yl)sulfonyl)acetic acid] | 14
Cc1ccc(NC(=O)C2(c3ccccc3C(C)C)CN(C(=O)CN3CC(O)C3)C2)c(OC(F)F)n1 [Ex 12-53, N-(2-(difluoromethoxy)-6-methylpyridin-3-yl)-1-(2-(3-hydroxyazetidin-1-yl)acetyl)-3-(2-isopropylphenyl)azetidine-3-carboxamide] | 17
Cc1ccc(NC(=O)C2(c3ccccc3C(C)C)CN(CCCC(C)(C)O)C2)c(OC(F)F)n1 [Ex 11-66, N-(2-(difluoromethoxy)-6-methylpyridin-3-yl)-1-(4-hydroxy-4-methylpentyl)-3-(2-isopropylphenyl)azetidine-3-carboxamide] | 14
COc1ccc(C(C)C)c(C2(C(=O)Nc3ccc(C)nc3OC(F)F)CNC2)c1 [Ex 38, N-(2-(difluoromethoxy)-6-methylpyridin-3-yl)-3-(2-isopropyl-5-methoxyphenyl)azetidine-3-carboxamide] | 287
5-(3-((2-(difluoromethoxy)-6-methylpyridin-3-yl)carbamoyl)-3-(2-isopropylphenyl)azetidin-1-yl)-2-methylpentan-2-yl acetate [Ex 11-65] | 315
Cc1ccc(NC(=O)C2(c3ccccc3C(C)C)CN(C(=O)CCc3cc(O)no3)C2)c(OC(F)F)n1 [Ex 12-29, N-(2-(difluoromethoxy)-6-methylpyridin-3-yl)-1-(3-(3-hydroxyisoxazol-5-yl)propanoyl)-3-(2-isopropylphenyl)azetidine-3-carboxamide] | 32
Cc1cnc(NC(=O)C2(c3ccccc3C(C)C)CN(C3=NC(=O)CO3)C2)c(OC(F)F)c1 [Ex 84, N-(3-(difluoromethoxy)-5-methylpyridin-2-yl)-3-(2-isopropylphenyl)-1-(4-oxo-4,5-dihydrooxazol-2-yl)azetidine-3-carboxamide] | 310
CC(=O)N(CC(=O)N1CC(C(=O)Nc2ccc(C)nc2OC(F)F)(c2ccccc2C(C)C)C1)OCc1ccccc1 [Ex 12-135, 1-(N-acetyl-N-(benzyloxy)glycyl)-N-(2-(difluoromethoxy)-6-methylpyridin-3-yl)-3-(2-isopropylphenyl)azetidine-3-carboxamide] | 8
Cc1ccc(NC(=O)C2(c3ncccc3C(C)C)CN(C(=O)CCC(=O)O)C2)c(OC(F)F)n1 [Ex 61, 4-(3-((2-(difluoromethoxy)-6-methylpyridin-3-yl)carbamoyl)-3-(3-isopropylpyridin-2-yl)azetidin-1-yl)-4-oxobutanoic acid] | 70
Cc1ccc(NC(=O)C2(c3ccccc3C(C)C)CN(CC#N)C2)c(OC(F)F)n1 [Ex 11-88, 1-(cyanomethyl)-N-(2-(difluoromethoxy)-6-methylpyridin-3-yl)-3-(2-isopropylphenyl)azetidine-3-carboxamide] | 6
CCOC(=O)c1c[nH]nc1CN1CC(C(=O)Nc2ccc(C)nc2OC(F)F)(c2ccccc2C(C)C)C1 [Ex 11-39, ethyl 3-((3-((2-(difluoromethoxy)-6-methylpyridin-3-yl)carbamoyl)-3-(2-isopropylphenyl)azetidin-1-yl)methyl)-1H-pyrazole-4-carboxylate] | 10

Further compounds by falling IC50, results first:

IC50 [nM] | Compound
594 | COc1nc(Cl)ccc1NC(=O)C1(c2ccccc2C(C)C)CNC1 [Ex 5, N-(6-chloro-2-methoxypyridin-3-yl)-3-(2-isopropylphenyl)azetidine-3-carboxamide]
193 | Cc1ccc(NC(=O)C2(c3ccccc3C(C)C)CN(CCN(C)CC(=O)O)C2)c(OC(F)F)n1 [Ex 11-82, N-(2-(3-((2-(difluoromethoxy)-6-methylpyridin-3-yl)carbamoyl)-3-(2-isopropylphenyl)azetidin-1-yl)ethyl)-N-methylglycine]
112 | Cc1ccc(NC(=O)C2(c3cc(F)ccc3C(C)C)CNC2)c(OC(F)F)n1 [Ex 37, N-(2-(difluoromethoxy)-6-methylpyridin-3-yl)-3-(5-fluoro-2-isopropylphenyl)azetidine-3-carboxamide]
38 | Cc1ccc(NC(=O)C2(c3ccccc3C(C)C)CN(Cc3nc(CC(=O)O)co3)C2)c(OC(F)F)n1 [Ex 11-59, 2-(2-((3-((2-(difluoromethoxy)-6-methylpyridin-3-yl)carbamoyl)-3-(2-isopropylphenyl)azetidin-1-yl)methyl)oxazol-4-yl)acetic acid]
33 | Cc1ccc(NC(=O)C2(c3ccccc3C3CCOCC3)CN(S(N)(=O)=O)C2)c(OC(F)F)n1 [Ex 30, N-(2-(difluoromethoxy)-6-methylpyridin-3-yl)-1-sulfamoyl-3-(2-(tetrahydro-2H-pyran-4-yl)phenyl)azetidine-3-carboxamide]
18 | Cc1ccc(NC(=O)C2(c3ccccc3C(C)C)CN(C(=O)CN(C)CC(=O)O)C2)c(OC(F)F)n1 [Ex 12-142, N-(2-(3-((2-(difluoromethoxy)-6-methylpyridin-3-yl)carbamoyl)-3-(2-isopropylphenyl)azetidin-1-yl)-2-oxoethyl)-N-methylglycine]
16 | COC(=O)c1ccc(N2CC(C(=O)Nc3ccc(C)nc3OC(F)F)(c3ccccc3C(C)C)C2)nc1 [Ex 18-1, Methyl 6-(3-((2-(difluoromethoxy)-6-methylpyridin-3-yl)carbamoyl)-3-(2-isopropylphenyl)azetidin-1-yl)nicotinate]
16 | Cc1ccc(NC(=O)C2(c3ccccc3C(C)C)CN(S(=O)(=O)CC3(C(=O)O)COC3)C2)c(OC(F)F)n1 [Ex 13-16, 3-(((3-((2-(difluoromethoxy)-6-methylpyridin-3-yl)carbamoyl)-3-(2-isopropylphenyl)azetidin-1-yl)sulfonyl)methyl)oxetane-3-carboxylic acid]
16 | Cc1ccc(NC(=O)C2(c3ccccc3C(C)C)CN(C(=O)O[C@@H](C)C(=O)O)C2)c(OC(F)F)n1 [Ex 14-4, (S)-2-((3-((2-(difluoromethoxy)-6-methylpyridin-3-yl)carbamoyl)-3-(2-isopropylphenyl)azetidine-1-carbonyl)oxy)propanoic acid]
15 | Cc1ccc(NC(=O)C2(c3ccccc3C(C)C)CN(C(=O)CCCC#N)C2)c(OC(F)F)n1 [Ex 12-1, 1-(4-cyanobutanoyl)-N-(2-(difluoromethoxy)-6-methylpyridin-3-yl)-3-(2-isopropylphenyl)azetidine-3-carboxamide]
13 | Cc1ccc(NC(=O)C2(c3ccccc3C3CCCCC3)CNC2)c(OC(F)F)n1 [Ex 27, 3-(2-cyclohexylphenyl)-N-(2-(difluoromethoxy)-6-methylpyridin-3-yl)azetidine-3-carboxamide]
11 | Cc1ccc(NC(=O)C2(c3ccccc3C(C)C)CN(C(=O)CCC(O)C(F)(F)F)C2)c(OC(F)F)n1 (stereo not shown) [Ex 12-120, N-(2-(difluoromethoxy)-6-methylpyridin-3-yl)-3-(2-isopropylphenyl)-1-(5,5,5-trifluoro-4-hydroxypentanoyl)azetidine-3-carboxamide]
7 | Cc1ccc(NC(=O)C2(c3ccccc3C(C)C)CN(S(=O)(=O)NCC(=O)O)C2)c(OC(F)F)n1 [Ex 15-2, ((3-((2-(difluoromethoxy)-6-methylpyridin-3-yl)carbamoyl)-3-(2-isopropylphenyl)azetidin-1-yl)sulfonyl)glycine]
7 | Cc1ccc(NC(=O)C2(c3ccccc3C(C)C)CN(S(=O)(=O)CCCC(=O)O)C2)c(OC(F)F)n1 [Ex 13-17, 4-((3-((2-(difluoromethoxy)-6-methylpyridin-3-yl)carbamoyl)-3-(2-isopropylphenyl)azetidin-1-yl)sulfonyl)butanoic acid]
6 | COC(=O)C(C)(C)CCNC(=O)N1CC(C(=O)Nc2ccc(C)nc2OC(F)F)(c2ccccc2C(C)C)C1 [Ex 17-18, methyl 4-(3-((2-(difluoromethoxy)-6-methylpyridin-3-yl)carbamoyl)-3-(2-isopropylphenyl)azetidine-1-carboxamido)-2,2-dimethylbutanoate]
4.3 | Cc1ccc(NC(=O)C2(c3ccccc3C(C)C)CCN(C(=O)OCC(=O)O)CC2)c(OC(F)F)n1 [Ex 14-2, 2-((4-((2-(difluoromethoxy)-6-methylpyridin-3-yl)carbamoyl)-4-(2-isopropylphenyl)piperidine-1-carbonyl)oxy)acetic acid]
3 | Cc1ccc(NC(=O)C2(c3ccccc3C(C)C)CN(C(=O)CNC[C@@H](C)O)C2)c(OC(F)F)n1 [Ex 12-55, (R)-N-(2-(difluoromethoxy)-6-methylpyridin-3-yl)-1-((R)-(2-hydroxypropyl)glycyl)-3-(2-isopropylphenyl)azetidine-3-carboxamide]
